Results taken from the kinase profiling compilation of Christmann-Franck et al. (2016).
One block for each compound: values may come before it.

Experiments:
[1] = molecular target: AAK1 (human) (UniProt Q2M2I8); experiment: KINOMEscan competition binding; conditions: compound 10.0 µM
[2] = molecular target: BMPR1B (human) (UniProt O00238); experiment: KINOMEscan competition binding; conditions: compound 10.0 µM
[3] = molecular target: CAMKK2 (human) (UniProt Q96RR4); experiment: KINOMEscan competition binding; conditions: compound 10.0 µM
[4] = molecular target: CLK1 (human) (UniProt P49759); experiment: KINOMEscan competition binding; conditions: compound 10.0 µM
[5] = molecular target: CLK2 (human) (UniProt P49760); experiment: KINOMEscan competition binding; conditions: compound 10.0 µM
[6] = molecular target: CLK4 (human) (UniProt Q9HAZ1); experiment: KINOMEscan competition binding; conditions: compound 10.0 µM
[7] = molecular target: CSNK1G1 (human) (UniProt Q9HCP0); experiment: KINOMEscan competition binding; conditions: compound 10.0 µM
[8] = molecular target: DAPK1 (human) (UniProt P53355); experiment: KINOMEscan competition binding; conditions: compound 10.0 µM
[9] = molecular target: DAPK2 (human) (UniProt Q9UIK4); experiment: KINOMEscan competition binding; conditions: compound 10.0 µM
[10] = molecular target: DAPK3 (human) (UniProt O43293); experiment: KINOMEscan competition binding; conditions: compound 10.0 µM
[11] = molecular target: DYRK1B (human) (UniProt Q9Y463); experiment: KINOMEscan competition binding; conditions: compound 10.0 µM
Chain of DYRK1B (human) (Q9Y463 whole entry, looked up): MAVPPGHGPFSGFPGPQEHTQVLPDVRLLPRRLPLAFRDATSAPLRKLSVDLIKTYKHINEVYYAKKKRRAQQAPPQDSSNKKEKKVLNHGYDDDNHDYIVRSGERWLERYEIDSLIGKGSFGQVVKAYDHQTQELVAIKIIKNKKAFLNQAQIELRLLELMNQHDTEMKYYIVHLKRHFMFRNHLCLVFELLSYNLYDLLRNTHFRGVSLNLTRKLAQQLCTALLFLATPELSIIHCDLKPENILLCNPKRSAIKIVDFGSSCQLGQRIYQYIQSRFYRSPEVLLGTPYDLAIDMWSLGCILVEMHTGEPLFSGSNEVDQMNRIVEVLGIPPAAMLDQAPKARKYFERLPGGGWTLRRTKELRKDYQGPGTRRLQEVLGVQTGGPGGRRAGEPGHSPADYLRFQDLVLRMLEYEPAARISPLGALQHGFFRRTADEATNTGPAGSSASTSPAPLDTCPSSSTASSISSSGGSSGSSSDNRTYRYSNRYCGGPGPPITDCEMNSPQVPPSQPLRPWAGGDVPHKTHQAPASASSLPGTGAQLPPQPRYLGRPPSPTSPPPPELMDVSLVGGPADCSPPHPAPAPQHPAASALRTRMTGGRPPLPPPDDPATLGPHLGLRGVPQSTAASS

[12] = test system: EIF2AK4 KD2 (human), Q9P2K8 [S808G]; experiment: KINOMEscan competition binding; conditions: compound 10.0 µM
[13] = molecular target: HIPK1 (human) (UniProt Q86Z02); experiment: KINOMEscan competition binding; conditions: compound 10.0 µM
Chain of HIPK1 (human) (Q86Z02 whole entry, looked up): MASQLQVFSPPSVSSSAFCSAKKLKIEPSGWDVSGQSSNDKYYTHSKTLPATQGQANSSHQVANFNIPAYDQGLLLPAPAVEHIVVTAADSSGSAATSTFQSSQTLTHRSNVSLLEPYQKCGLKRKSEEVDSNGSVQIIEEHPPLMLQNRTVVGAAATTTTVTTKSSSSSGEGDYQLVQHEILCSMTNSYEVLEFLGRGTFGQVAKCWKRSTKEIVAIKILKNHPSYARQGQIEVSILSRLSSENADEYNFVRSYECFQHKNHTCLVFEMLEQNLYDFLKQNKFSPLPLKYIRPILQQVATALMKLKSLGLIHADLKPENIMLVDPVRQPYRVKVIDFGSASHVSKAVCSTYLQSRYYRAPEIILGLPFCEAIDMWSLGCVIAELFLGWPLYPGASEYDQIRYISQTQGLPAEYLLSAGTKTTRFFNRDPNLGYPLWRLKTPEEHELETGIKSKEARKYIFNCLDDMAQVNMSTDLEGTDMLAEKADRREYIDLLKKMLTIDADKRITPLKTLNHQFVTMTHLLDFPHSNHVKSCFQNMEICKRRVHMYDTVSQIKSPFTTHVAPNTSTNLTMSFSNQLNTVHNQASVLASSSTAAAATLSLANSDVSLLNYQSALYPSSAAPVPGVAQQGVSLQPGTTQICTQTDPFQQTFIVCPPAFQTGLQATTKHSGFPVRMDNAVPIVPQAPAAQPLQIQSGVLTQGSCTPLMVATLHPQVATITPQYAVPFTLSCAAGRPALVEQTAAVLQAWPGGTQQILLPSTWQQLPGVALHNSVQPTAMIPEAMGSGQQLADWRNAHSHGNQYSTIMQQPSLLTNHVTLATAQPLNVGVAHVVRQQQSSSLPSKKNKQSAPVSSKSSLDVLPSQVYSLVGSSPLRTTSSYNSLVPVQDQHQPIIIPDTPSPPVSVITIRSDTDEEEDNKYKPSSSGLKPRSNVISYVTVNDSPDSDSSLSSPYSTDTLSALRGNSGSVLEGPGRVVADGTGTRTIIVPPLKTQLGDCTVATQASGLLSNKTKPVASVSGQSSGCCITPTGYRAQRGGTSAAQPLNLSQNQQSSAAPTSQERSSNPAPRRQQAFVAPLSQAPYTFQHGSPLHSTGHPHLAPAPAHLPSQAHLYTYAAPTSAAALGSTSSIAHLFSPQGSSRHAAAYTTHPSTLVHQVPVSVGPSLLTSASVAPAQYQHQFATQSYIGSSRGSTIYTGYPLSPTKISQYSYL

[14] = molecular target: MAP4K2 (human) (UniProt Q12851); experiment: KINOMEscan competition binding; conditions: compound 10.0 µM
[15] = molecular target: MAPK10 (human) (UniProt P53779); experiment: KINOMEscan competition binding; conditions: compound 10.0 µM
[16] = molecular target: MAPK8 (human) (UniProt P45983); experiment: KINOMEscan competition binding; conditions: compound 10.0 µM
[17] = molecular target: PAK2 (human) (UniProt Q13177); experiment: KINOMEscan competition binding; conditions: compound 10.0 µM
[18] = molecular target: PIM1 (human) (UniProt P11309); experiment: KINOMEscan competition binding; conditions: compound 10.0 µM
[19] = molecular target: PIM2 (human) (UniProt Q9P1W9); experiment: KINOMEscan competition binding; conditions: compound 10.0 µM
[20] = molecular target: PIM3 (human) (UniProt Q86V86); experiment: KINOMEscan competition binding; conditions: compound 10.0 µM
[21] = molecular target: RPS6KA4 KD2 (human) (UniProt O75676); experiment: KINOMEscan competition binding; conditions: compound 10.0 µM
[22] = molecular target: RPS6KA5 KD2 (human) (UniProt O75582); experiment: KINOMEscan competition binding; conditions: compound 10.0 µM
[23] = molecular target: STK17A (human) (UniProt Q9UEE5); experiment: KINOMEscan competition binding; conditions: compound 10.0 µM
[24] = molecular target: STK17B (human) (UniProt O94768); experiment: KINOMEscan competition binding; conditions: compound 10.0 µM
[25] = molecular target: DYRK1A (human) (UniProt Q13627); experiment: SelectScreen, TR FRET
[26] = molecular target: DYRK1B (human) (UniProt Q9Y463); experiment: SelectScreen, TR FRET
[27] = molecular target: HIPK1 (human) (UniProt Q86Z02); experiment: SelectScreen, TR FRET
[28] = molecular target: HIPK2 (human) (UniProt Q9H2X6); experiment: SelectScreen, TR FRET
[29] = test system: ABL1 (human), P00519 [F317I]; experiment: KINOMEscan competition binding; conditions: compound 10.0 µM
[30] = molecular target: ALK (human) (UniProt Q9UM73); experiment: KINOMEscan competition binding; conditions: compound 10.0 µM
[31] = molecular target: DCLK1 (human) (UniProt O15075); experiment: KINOMEscan competition binding
Chain of DCLK1 (human) (O15075 whole entry, looked up): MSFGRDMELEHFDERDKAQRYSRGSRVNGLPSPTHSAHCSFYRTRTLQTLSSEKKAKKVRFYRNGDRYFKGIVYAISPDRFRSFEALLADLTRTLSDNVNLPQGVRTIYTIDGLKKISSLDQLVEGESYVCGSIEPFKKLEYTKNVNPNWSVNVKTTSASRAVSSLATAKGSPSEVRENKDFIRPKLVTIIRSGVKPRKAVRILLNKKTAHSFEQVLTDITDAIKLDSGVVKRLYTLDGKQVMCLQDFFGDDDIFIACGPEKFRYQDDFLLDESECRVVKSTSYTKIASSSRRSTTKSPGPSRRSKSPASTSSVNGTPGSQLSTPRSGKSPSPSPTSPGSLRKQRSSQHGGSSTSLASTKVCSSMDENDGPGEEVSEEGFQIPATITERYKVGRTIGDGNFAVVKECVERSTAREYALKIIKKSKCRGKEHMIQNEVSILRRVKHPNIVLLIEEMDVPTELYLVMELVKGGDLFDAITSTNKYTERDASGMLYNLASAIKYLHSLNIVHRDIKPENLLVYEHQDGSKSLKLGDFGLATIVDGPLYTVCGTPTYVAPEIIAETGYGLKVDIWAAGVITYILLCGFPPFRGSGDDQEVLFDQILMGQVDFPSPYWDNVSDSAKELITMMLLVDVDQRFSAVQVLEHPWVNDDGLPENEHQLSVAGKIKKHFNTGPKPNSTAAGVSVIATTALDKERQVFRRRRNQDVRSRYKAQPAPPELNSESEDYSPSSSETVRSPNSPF

[32] = molecular target: DCLK2 (human) (UniProt Q8N568); experiment: KINOMEscan competition binding; conditions: compound 10.0 µM
[33] = molecular target: GAK (human) (UniProt O14976); experiment: KINOMEscan competition binding; conditions: compound 10.0 µM
Chain of GAK (human) (O14976 whole entry, looked up): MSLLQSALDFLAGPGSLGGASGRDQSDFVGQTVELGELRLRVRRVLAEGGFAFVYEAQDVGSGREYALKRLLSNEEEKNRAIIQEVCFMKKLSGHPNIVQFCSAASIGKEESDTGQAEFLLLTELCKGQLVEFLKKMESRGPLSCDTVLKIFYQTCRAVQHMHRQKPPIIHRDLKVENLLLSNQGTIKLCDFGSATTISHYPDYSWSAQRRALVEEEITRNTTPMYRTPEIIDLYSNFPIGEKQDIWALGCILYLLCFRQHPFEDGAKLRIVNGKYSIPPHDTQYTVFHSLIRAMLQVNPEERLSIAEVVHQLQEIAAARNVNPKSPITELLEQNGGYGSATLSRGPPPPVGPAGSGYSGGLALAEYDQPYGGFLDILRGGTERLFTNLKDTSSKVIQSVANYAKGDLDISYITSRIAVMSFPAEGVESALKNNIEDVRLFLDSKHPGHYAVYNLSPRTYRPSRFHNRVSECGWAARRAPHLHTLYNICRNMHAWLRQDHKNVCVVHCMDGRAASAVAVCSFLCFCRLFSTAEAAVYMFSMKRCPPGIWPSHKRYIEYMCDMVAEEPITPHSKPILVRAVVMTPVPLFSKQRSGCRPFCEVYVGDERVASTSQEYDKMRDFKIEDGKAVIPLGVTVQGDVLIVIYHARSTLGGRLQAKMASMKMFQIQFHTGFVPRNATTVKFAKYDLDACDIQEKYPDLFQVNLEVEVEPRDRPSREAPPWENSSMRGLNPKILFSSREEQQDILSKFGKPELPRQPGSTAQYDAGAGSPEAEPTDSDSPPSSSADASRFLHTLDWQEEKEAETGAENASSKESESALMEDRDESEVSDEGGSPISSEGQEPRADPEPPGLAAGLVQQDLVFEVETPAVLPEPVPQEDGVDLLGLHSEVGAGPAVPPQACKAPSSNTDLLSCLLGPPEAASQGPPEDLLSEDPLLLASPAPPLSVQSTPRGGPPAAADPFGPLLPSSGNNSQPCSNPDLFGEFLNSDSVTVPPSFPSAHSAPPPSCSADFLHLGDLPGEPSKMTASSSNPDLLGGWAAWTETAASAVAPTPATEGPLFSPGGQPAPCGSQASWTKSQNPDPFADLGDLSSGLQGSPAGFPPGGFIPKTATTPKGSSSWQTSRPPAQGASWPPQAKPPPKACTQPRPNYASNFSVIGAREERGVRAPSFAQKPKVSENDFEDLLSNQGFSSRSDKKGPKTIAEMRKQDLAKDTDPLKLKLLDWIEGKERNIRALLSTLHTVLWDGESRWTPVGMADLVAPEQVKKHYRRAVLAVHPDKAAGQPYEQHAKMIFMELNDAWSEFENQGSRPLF

[34] = molecular target: MAPK7 (human) (UniProt Q13164); experiment: KINOMEscan competition binding; conditions: compound 10.0 µM
[35] = molecular target: PLK4 (human) (UniProt O00444); experiment: KINOMEscan competition binding; conditions: compound 10.0 µM
[36] = molecular target: ROS1 (human) (UniProt P08922); experiment: KINOMEscan competition binding; conditions: compound 10.0 µM
[37] = molecular target: RPS6KA1 KD2 (human) (UniProt Q15418); experiment: KINOMEscan competition binding; conditions: compound 10.0 µM
[38] = molecular target: RPS6KA6 KD2 (human) (UniProt Q9UK32); experiment: KINOMEscan competition binding; conditions: compound 10.0 µM
[39] = molecular target: TNK1 (human) (UniProt Q13470); experiment: KINOMEscan competition binding; conditions: compound 10.0 µM
[40] = molecular target: TNK2 (human) (UniProt Q07912); experiment: KINOMEscan competition binding; conditions: compound 10.0 µM
[41] = molecular target: TTK (human) (UniProt P33981); experiment: KINOMEscan competition binding; conditions: for kinase still bound, per cent of control: compound 10.0 µM
Chain of TTK (human) (P33981 whole entry, looked up): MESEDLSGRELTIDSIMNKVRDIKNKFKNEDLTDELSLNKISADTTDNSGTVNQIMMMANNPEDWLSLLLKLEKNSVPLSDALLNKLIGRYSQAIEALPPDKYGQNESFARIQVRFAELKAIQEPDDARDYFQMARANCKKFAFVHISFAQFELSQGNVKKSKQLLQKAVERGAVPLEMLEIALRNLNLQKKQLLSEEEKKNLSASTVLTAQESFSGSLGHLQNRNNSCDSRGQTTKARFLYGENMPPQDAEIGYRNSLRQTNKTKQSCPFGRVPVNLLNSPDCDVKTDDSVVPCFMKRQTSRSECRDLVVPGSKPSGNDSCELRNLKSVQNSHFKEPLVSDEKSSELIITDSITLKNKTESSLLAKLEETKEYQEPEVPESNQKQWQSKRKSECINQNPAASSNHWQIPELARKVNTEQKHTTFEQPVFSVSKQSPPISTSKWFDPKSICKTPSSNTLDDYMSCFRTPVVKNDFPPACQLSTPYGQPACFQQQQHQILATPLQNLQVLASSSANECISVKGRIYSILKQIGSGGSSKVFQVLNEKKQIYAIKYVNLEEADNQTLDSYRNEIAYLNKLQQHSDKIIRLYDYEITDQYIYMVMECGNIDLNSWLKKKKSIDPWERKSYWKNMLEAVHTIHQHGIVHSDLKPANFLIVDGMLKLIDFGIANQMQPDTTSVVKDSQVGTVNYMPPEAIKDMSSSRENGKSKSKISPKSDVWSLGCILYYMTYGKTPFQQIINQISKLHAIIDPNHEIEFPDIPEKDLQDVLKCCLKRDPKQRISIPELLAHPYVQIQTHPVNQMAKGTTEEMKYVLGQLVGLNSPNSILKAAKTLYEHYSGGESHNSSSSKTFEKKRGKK

[42] = molecular target: LRRK2 (human), Q5S007 [G2019S]; experiment: SelectScreen, TR FRET
[43] = molecular target: MAP3K2 (human) (UniProt Q9Y2U5); experiment: SelectScreen, TR FRET
[44] = molecular target: MAP3K3 (human) (UniProt Q99759); experiment: SelectScreen, TR FRET
[45] = molecular target: TAOK2 (human) (UniProt Q9UL54); experiment: SelectScreen, TR FRET
[46] = molecular target: JAK2 JH1 catalytic (human) (UniProt O60674); experiment: KINOMEscan competition binding; conditions: compound 10.0 µM
[47] = molecular target: PLK1 (human) (UniProt P53350); experiment: KINOMEscan competition binding; conditions: compound 10.0 µM
[48] = molecular target: CSF1R (human) (UniProt P07333); experiment: SelectScreen, TR FRET
[49] = molecular target: DCLK2 (human) (UniProt Q8N568); experiment: SelectScreen, TR FRET
[50] = molecular target: FRK (human) (UniProt P42685); experiment: SelectScreen, TR FRET
[51] = molecular target: PTK6 (human) (UniProt Q13882); experiment: SelectScreen, TR FRET
[52] = molecular target: TTK (human) (UniProt P33981); experiment: SelectScreen, TR FRET

- kinase still bound, per cent of control [1]: 20%
- kinase still bound, per cent of control [2]: 6.2%
- kinase still bound, per cent of control [3]: 29%
- kinase still bound, per cent of control [4]: 24%
- kinase still bound, per cent of control [5]: 4.8%
- kinase still bound, per cent of control [6]: 30%
- kinase still bound, per cent of control [7]: 24%
- kinase still bound, per cent of control [8]: 9.7%
- kinase still bound, per cent of control [9]: 4%
- kinase still bound, per cent of control [10]: 8.6%
- kinase still bound, per cent of control [11]: 8.6%
- kinase still bound, per cent of control [12]: 21%
- kinase still bound, per cent of control [13]: 4.2%
- kinase still bound, per cent of control [14]: 15%
- kinase still bound, per cent of control [15]: 29%
- kinase still bound, per cent of control [16]: 28%
- kinase still bound, per cent of control [17]: 34%
- kinase still bound, per cent of control [18]: 16%
- kinase still bound, per cent of control [19]: 15%
- kinase still bound, per cent of control [20]: 12%
- kinase still bound, per cent of control [21]: 8.8%
- kinase still bound, per cent of control [22]: 23%
- kinase still bound, per cent of control [23]: 5%
- kinase still bound, per cent of control [24]: 13%
- IC50 [25]: 0.019 µM
- IC50 [26]: 0.062 µM
- IC50 [27]: 3.81 µM
- IC50 [28]: 3.89 µM
SMILES: N=C1NC(=O)/C(=C/c2c[nH]c(=O)c(-c3ccc4cc[nH]c4c3)c2)S1

- kinase still bound, per cent of control [29]: 30%
- kinase still bound, per cent of control [30]: 29%
- Kd [31]: 0.097 µM
- kinase still bound, per cent of control ([31]; compound 10.0 µM): 0.9%
- kinase still bound, per cent of control [32]: 0.65%
- kinase still bound, per cent of control [33]: 31%
- kinase still bound, per cent of control [34]: 0%
- kinase still bound, per cent of control [35]: 2.8%
- kinase still bound, per cent of control [36]: 15%
- kinase still bound, per cent of control [37]: 28%
- kinase still bound, per cent of control [38]: 31%
- kinase still bound, per cent of control [39]: 7.8%
- kinase still bound, per cent of control [40]: 17%
- kinase still bound, per cent of control [41]: 19%
- IC50 [42]: 0.0026 µM
- IC50 [43]: 0.155 µM
- IC50 [44]: 0.12 µM
- IC50 [45]: 0.0543 µM
SMILES: CCOc1cc(N2CCC(O)CC2)ccc1Nc1ncc2c(n1)N(C)c1ccccc1C(=O)N2C

- kinase still bound, per cent of control [33]: 23%
- kinase still bound, per cent of control [46]: 6.4%
- kinase still bound, per cent of control [47]: 24%
- kinase still bound, per cent of control [35]: 16%
- Kd [41]: 0.13 µM
- kinase still bound, per cent of control [41]: 2.2%
- IC50 [48]: 0.428 µM
- IC50 [49]: 3.2 µM
- IC50 [50]: 0.264 µM
- IC50 [51]: 0.047 µM
- IC50 [52]: 0.891 µM
SMILES: CN1C(=O)CCN(C2CCCC2)c2nc(Nc3ccc(N4CCC(O)CC4)cn3)ncc21
